Test results as given in PMC10932281, “A Combination of β-Aescin and Newly Synthesized Alkylamidobetaines as Modern Components Eradicating the Biofilms of Multidrug-Resistant Clinical Strains of Candida glabrata” (International Journal of Molecular Sciences, 2024).
Where two headings read alike, the source gives them in different places.

Key:
[1] = Krafft temperature (TK); assay type: physicochemical
Procedure: CHNS elemental analysis was carried out by a Vario EL cube (Elementar, Germany) calibrated on acetanilide. Electrospray ionization mass spectroscopy (ESI-MS) (micrOTOF-Q instrument; Bruker Daltonics, Germany) allowed for the MS spectra to be obtained. The ESI-MS instrument was operated in the positive ion mode and calibrated with the Tunemix^TM mixture (Bruker Daltonics, Germany). The mass accuracy was better than 5 ppm. The obtained mass spectra were analyzed using DataAnalysis 3.4 software (Bruker Daltonics, Germany). ^1H NMR spectra were recorded on a Bruker AMX-500 spectrometer, using CDCl3 as a solvent. ^1H chemical shifts (in ppm) were calibrated to TMS as an internal reference. Melting points were determined using a Boetius melting point apparatus, while Krafft temperatures were determined according to the directions given in [47]. CMC is the minimum concentration above which micelles are formed in aqueous liquid. To obtain the CMC values, we used McGowan’s model. […] Molecular characteristic volumes (Vx) are found by the addition of the atomic characteristic volumes and the subtraction for the same factory (6.56 × 10^−6 m^3 mol^−1) for every covalent bond.

[2] = test system: C. glabrata 2586; test: Interaction of AABs (3 µM) with antifungal agents, modified checkerboard; assay type: cell-based, Candida glabrata
[3] = test system: C. glabrata 2853; test: as above; assay type: cell-based, Candida glabrata
[4] = test system: C. glabrata DSM 1226; parameters: method as in PMID 37508306; conditions: ref [12]; cited from earlier work
[5] = test system: C. glabrata clinical isolate C8 (C18); parameters: method as in PMID 37508306; conditions: ref [12]; cited from earlier work
[6] = test system: C. glabrata clinical isolate C27; parameters: method as in PMID 37508306; conditions: ref [12]; cited from earlier work
[7] = test system: C. glabrata cells; parameters: method as in PMID 37508306; conditions: ref [12], cited from earlier work
[8] = test system: ERG11 and ALS3; parameters: method as in PMID 37508306; conditions: qRT-PCR; ref [12]; cited from earlier work
[9] = C9 at constant 3 µM, dilutions in µg/mL
[10] = C11 at constant 3 µM, dilutions in µg/mL
[11] = C13 at constant 3 µM, dilutions in µg/mL
[12] = C15 at constant 3 µM, dilutions in µg/mL

CCCCCCCCCC(=O)N(C)CCC[N+](C)(C)CC(=O)[O-] [C9]
TK (Krafft temperature) [1]: <0 °C

β-aescin
Multiplicity factor (MF) with C9 ([2]; C9 3 µM): 2 | MIC90 of antimycotic combined with C9 [2, 9]: 128 | Multiplicity factor (MF) with C11 ([2]; C11 3 µM): 2 | MIC90 of antimycotic combined with C11 [2, 10]: 128 | Multiplicity factor (MF) with C13 ([2]; C13 3 µM): 2 | MIC90 of antimycotic combined with C13 [2, 11]: 128 | Multiplicity factor (MF) with C15 ([2]; C15 3 µM): 2 | MIC90 of antimycotic combined with C15 [2, 12]: 128 | Multiplicity factor (MF) with C9 ([3]; C9 3 µM): 1 | MIC90 of antimycotic combined with C9 [3, 9]: 128 | Multiplicity factor (MF) with C11 ([3]; C11 3 µM): 1 | MIC90 of antimycotic combined with C11 [3, 10]: 128 | Multiplicity factor (MF) with C13 ([3]; C13 3 µM): 1 | MIC90 of antimycotic combined with C13 [3, 11]: 128 | Multiplicity factor (MF) with C15 ([3]; C15 3 µM): 1 | MIC90 of antimycotic combined with C15 [3, 12]: 128 | MFC [4]: 160 µg/mL | MIC [4]: 80 µg/mL | MFC [5]: 100 µg/mL | MIC [5]: 40 µg/mL | MFC [6]: 100 µg/mL | MIC [6]: 50 µg/mL | Increase versus control (FACS, membrane integrity) ([7]; 1 × MIC): about 7.4% | Increase versus control (FACS, membrane integrity) ([7]; 2 × MIC): ~22% | Expression of ERG11 and ALS3 [8]: downregulation
